Results on 2 molecules are retold here after patent US20230091310A1, “Inhibitor of Fertilized Egg Fragmentation” (priority 2019, published 2023).

Assay [1] has as its system fertilized eggs. Description: Fertilized egg fragmentation after treatment of sperm, in vitro fertilization. It counts as cell-based, mouse (C57BL/6 J line). Conditions: sperm incubated 6 h with 100 nM, 24 h after fertilization; for fragmented embryos: vs untreated control. The protocol: In the same manner as Example 2, sperm incubated for 6 hours in selenoneine-containing TYH medium (final concentration: 100 nM) were separated off with the medium and washed with TYH medium that had been previously incubated at 37° C. in a 5% CO2 atmosphere, after which the washed sperm were separated off and added to TYH medium containing cumulus cells-egg masses. After 24 hours had passed, the fertilization rate was measured and the numbers of normal 2-cell stage embryos and fragmented embryos were counted. For measurement of the fertilization rate, second polar body release and the presence or absence of cell nuclei in the split bodies of each of the 2-cell stage embryos were visually observed in the bright field of a stereomicroscope, and normal 2-cell stage embryos and fragmented embryos were likewise observed in the bright field of a stereomicroscope.
The inhibiting effect of ergothioneine treatment on fragmentation of fertilized eggs was examined in the same manner as the selenoneine treatment of sperm in Example 3, but using commercially available ergothioneine (final concentration: 100 nM) instead of selenoneine (FIG. 5). No difference in the proportion of 2-cell stage embryos was found between the ergothioneine treatment and selenoneine treatment (FIG. 5A).

In assay [2] the test system is eggs. Description: Stress-induced egg fragmentation (hot plate culturing). Conditions: hot plate 37° C.; for egg fragmentation: after 21 and 24 hours of culturing. Type of assay: cell-based, mouse. The method, then: (§1) Mouse cumulus cells-egg masses harvested by the method of Example 3 were stored in TYH medium and the cumulus cells were removed by 300 μg/mL hyaluronidase treatment to recover the eggs alone. TYH medium was prepared with selenoneine at 10 nM, 100 nM, 1 μM, 10 μM and 100 μM, and incubated on a hot plate set to 37° C. Selenoneine-free THY medium was used as the control. The collected eggs were transferred to the incubated selenoneine-containing TYH medium and cultured under shielding for 12 hours, 15 hours, 18 hours, 21 hours and 24 hours, after which they were observed under a stereomicroscope and the proportion of fragmented eggs was examined (FIG. 6). The numbers of cultured eggs in each selenoneine-containing medium were 10 nM: 107, 100 nM: 161, 1 μM: 155, 10 μM: 118, 100 μM: 85 and control: 83.
Culturing by incubation on a hot plate instead of a CO2 incubator produced stress in the eggs. […] The numbers of cultured eggs in each medium were 10 nM: 63, 100 nM: 66, 1 μM: 63, 10 μM: 71, 100 μM: 54 and control: 83.
as §1, with “with ergothioneine” for “with selenoneine”, “C. Ergothioneine-free” for “C. Selenoneine-free”, “(FIG. 7).” for “(FIG. 6). The numbers of cultured eggs in each selenoneine-containing medium were 10 nM: 107, 100 nM: 161, 1 μM: 155, 10 μM: 118, 100 μM: 85 and control: 83.”
Culturing by incubation on a hot plate instead of a CO2 incubator produced stress in the eggs.

In assay [3] the test system is eggs. Description: Oxidative stress test (ROS/RNS Detection Kit) in eggs. Type of assay: cell-based, mouse. Conditions: 1 μM each; 15 hours on hot plate; vs vehicle (0.1% DMSO). The method, then: Mouse cumulus cells-egg masses harvested by the method of Example 3 were stored in TYH medium and the cumulus cells were removed by 300 μg/mL hyaluronidase treatment to recover the eggs alone. TYH medium containing 1 μM selenoneine (SeN), TYH medium containing 1 μM ergothioneine (Erg) and TYH medium containing 1 μM ergothioneine and 1 μM ebselen (Tokyo Kasei Kogyo Co., Ltd.) (Erg+Eb) were prepared and incubated on a hot plate set to 37° C. As a control, a TYH medium (vehicle) containing the DMSO (0.1%) used to dissolve the ebselen was used. The collected eggs were transferred to incubated selenoneine-containing TYH medium and cultured under shielding for 15 hours. The reagent of a ReOIS-ID ROS/RNS Detection Kit (product of Enzo Co.) was added to the medium containing the cultured eggs, according to the manufacturer's protocol. DAPI (Wako Pure Chemical Industries, Ltd.) had already been separately added to stain the nuclei. The nuclei (DAPI) and the reactive oxygen species (ROS), reactive nitrogen species (RNS) and superoxides in the eggs were observed under a fluorescent microscope (FIG. 8A). The fluorescence intensity was calculated and graphed (FIGS. 8B to D).

The subject of assay [4] is mouse sperm. Description: Sperm membrane protection (propidium iodide / Hoechst 33342 staining). Type of assay: cell-based, mouse (C57BL/6 J line). The method, then:
(§2) A sperm mass harvested from the epididymis of an 8- to 12-week-old sexually matured male mouse (C57BL/6 J line) was transferred to a drop prepared in the TYH medium. It was then returned to the plastic dish in the incubator and allowed to stand for 1 hour. After standing for 1 hour, the selenoneine prepared in Example 1 was added to a drop of sperm-containing fertilization medium to final concentrations of 10 nM, 1 μM and 100 μM (or was not added for the control), and the mixture was cultured in an incubator for 3 hours, 6 hours and 9 hours, after which the sperm were obtained. The sperm were also obtained before culturing (0 h). The nuclei of obtained sperm were stained with 2 μg/mL of propidium iodide (PI: Sigma-Aldrich Japan, KK.) and 16.2 μM of Hoechst AG 33342 (Hoechst3342: Invitrogen Corp.), and observed under a fluorescent microscope (FIG. 9A). The number of sperm whose nuclei were unstained with propidium iodide was divided by the number of sperm whose nuclei were stained with Hoechst AG, to calculate the proportion of sperm which retained membranes (FIG. 9B).
Hoechst AG is cell membrane-permeable and can stain all sperm nuclei, whereas propidium iodide is membrane-impermeable and can only stain the nuclei of dead sperm or sperm that have damaged membranes. Therefore, the number of sperm whose nuclei were not stained with propidium iodide but were stained only by Hoechst AG represents the number of normal sperm which retained their membranes.
as §2, with “(Hoechst3342: distributed by” for “(Hoechst3342:”, “microscope.” for “microscope (FIG. 9A).”, “9C).” for “9B).”

Assay [5] relates to mouse sperm. Description: Sperm motility test (CASA). It counts as cell-based, mouse (C57BL/6 J line). Conditions: 1 μL of 10 μM added to 100 μL TYH drop; 3 h and 6 h incubation; vs control. The protocol: A 100 μL drop of TYH medium was prepared in a plastic dish, and liquid paraffin was laid over it until the drop was completely covered. The plastic dish was then allowed to stand for 16 hours in an incubator set to 5% CO2, 37° C. The TYH medium drop on the plastic dish was used for a sperm motility test and fertilization test. A sperm mass harvested from the epididymis of a 8- to 12-week-old sexually matured male mouse (C57BL/6 J line) was transferred to a drop prepared in the TYH medium. It was then returned to the plastic dish in the incubator and allowed to stand for 1 hour. After standing for 1 hour, 1 μL of selenoneine (10 μM) prepared in Example 1 was added to a drop of sperm-containing fertilization medium (or not added for the control), and the mixture was allowed to stand in an incubator. After incubation for 3 hours, the sperm motility was measured using CASA, and the proportion of sperm was measured, dividing it into motile sperm and progressive sperm (FIGS. 2A and B). After incubation for 6 hours, the proportion of sperm was then measured with similar division based on sperm motility (VCL) (FIGS. 2C and D).

In assay [6] the test system is fertilized eggs. Description: Fertilized egg fragmentation after treatment of eggs, in vitro fertilization. It counts as cell-based, mouse (C57BL/6 J line). Conditions: eggs cultured with 100 nM; 24 h after sperm addition; vs control. The method, then:
Female mice (C57BL/6 J line: 8- to 12-week-old) were treated for superovulation by the following procedure, and the eggs were harvested.
1. Animal serotropin (PMSG, ASKA Pharmaceutical Co., Ltd.) and animal gonadotropin (hCG, ASKA Pharmaceutical Co., Ltd.) were dissolved in physiological saline to […]. 2. The mice were intraperitoneally administered PMSG at 0.1 mL(5 units)/mouse, and after 48 hours they were intraperitoneally administered hCG at 0.1 mL (5 units)/mouse. 3. After hCG administration, the cumulus cells and egg masses were taken through the fallopian tubes of the mice at 14 to 16 hours.
The cumulus cells and egg masses harvested from the fallopian tubes of the superovulated mice were transferred to a drop of 100 μL TYH medium that had been previously incubated in 5% CO2 at 37° C., and allowed to stand in the incubator.
The harvested eggs were cultured for 2 hours in TYH medium, and then the 1 μL selenoneine (10 μM) solution prepared in Example 1 was added to the TYH medium drop (or not added for the control), and further culturing was carried out for 2 hours with a final concentration of 100 nM selenoneine in the medium. […] After 24 hours had passed in the presence of selenoneine, the fertilization rate was measured and the numbers of normal 2-cell stage embryos and fragmented embryos were counted. […]

Where [7] appears, read: 10 nM to 100 μM, culturing 3, 6 and 9 hours.
[8] abbreviates: 100 μM, after culturing for 9 hours, p<0.05.

`C[N+](C)(C)[C@@H](Cc1c[nH]c(=S)[nH]1)C(=O)[O-]` [ergothioneine]: the fragmented embryos result in the assay on fertilized eggs [1] (washed) is “reduced compared to the untreated control”. Moreover, in the assay with fertilized eggs [1], the “proportion of 2-cell stage embryos, ergothioneine treatment versus selenoneine treatment” value was “No difference”. The egg fragmentation entry in the assay with eggs [2] (10 nM to 10 μM in TYH medium) is “inhibition seen”; in the assay with eggs [2] (1 μM in TYH medium, p<0.05), “significantly inhibited”. Besides, in the assay on eggs [3], the “reactive nitrogen species (RNS) in eggs” value is listed as “no variation”. The “reactive oxygen species (ROS) in eggs” value in the assay on eggs [3] is “increased significantly”. The superoxides in eggs entry in the assay on eggs [3] is reported as “No change”. Moreover, the “proportion of sperm which retained membranes” value in the assay on mouse sperm [4] (setting [7]) was “membrane-protecting effect”; in the assay with mouse sperm [4] (setting [8]), “significantly protected”.
Take `C[N+](C)(C)[C@@H](Cc1cnc([Se-])[nH]1)C(=O)O` [selenoneine]: in the assay on fertilized eggs [1] (washed, vs control), the “proportion of 2-cell stage embryos” value was “no difference”. The fragmented embryos entry in the assay on fertilized eggs [1] (washed) is given as “No fragmented embryos”. Moreover, the “sperm motility (proportion of motile sperm and progressive sperm)” value in the assay with mouse sperm [5] is on record as “No effect on sperm motility”. The “degree of egg fragmentation” value in the assay on eggs [2] (100 nM, 1 μM and 10 μM in TYH medium, p<0.05) is given as “significantly inhibited”. In addition, in the assay with eggs [3], the “reactive nitrogen species (RNS) in eggs” value is reported as “significant reduction”, the “reactive oxygen species (ROS) in eggs” value was “increased significantly” and the superoxides in eggs entry is “No change”. In addition, the “proportion of sperm which retained membranes” value in the assay with mouse sperm [4] (setting [7]) is “membrane-protecting effect”. For the same molecule, the “proportion of sperm which retained membranes” value with mouse sperm [4] (setting [8]) is on record as “significantly protected”. For the same molecule, in the assay on fertilized eggs [6], the fragmented embryos result is given as “no fragmented embryos” and the “proportion of 2-cell stage embryos” value is on record as “no difference”.
